# Measured values: US8609656B2, “Heteroarylphenylurea derivative” (Chugai Seiyaku Kabushiki Kaisha, priority 2004, dated 2013)
# Structures can show the parent of a compound that is named as a salt.
# How the values were obtained:
# [1] = test system: VEGF non-dependent human umbilical vein endothelial cells (HUVEC); assay: Cell growth inhibition test, VEGF non-dependent HUVEC; type: cell-based; conditions: 72 hours, WST-1, read-out: HUVEC (VEGF Nondependence), 50% Growth Inhibition Concentration (IC50 value)
# Method: (§1) Cell Growth Inhibition Test
# (§2) With respect to the compounds relating to the present invention and the known compound (BAY 43-9006), cell growth inhibition activity was measured.
# (§3) A sample compound was in-series diluted with dimethyl sulfoxide, and then was 1/50 diluted with a Ca^2+- and Mg^2+-free phosphate-bufferized physiological saline and its 20 μL was poured to a 96-well plate. […] Each of these cell suspensions was dividedly poured to the sample added plate in 180 μL/well and cultured in a 5% carbon dioxide incubator at 37° C. After 72 hours, 20 μL of WST-(HCT 116, a product of Dojin) or WST-1 (HUVEC, a product of Roche diagnostics) was added thereto to each well and the absorbance at 450 nm (reference wavelength: 650 nm) was measured. From the growth inhibition ratio of addition of the sample compound to no-addition of the sample compound as a reference, the 50% growth inhibition IC50) of the sample compound was calculated.
# (§4) With respect to the group of representative compounds of the present invention, the IC50 values of HCT 116 and HUVEC (VEGF nondependent growth and VEGF dependent growth) are shown in Tables 5-1 to 5-3.
# [2] = test system: human colorectal cancer cell strain HCT 116; assay: Cell growth inhibition test, HCT 116; type: cell-based; conditions: 72 hours, read-out: HCT116, 50% Growth Inhibition Concentration (IC50 value)
# Method: as §1, §2, §3, §4
# VEGF dependent HUVEC = assay: Cell growth inhibition test, VEGF dependent HUVEC; type: cell-based; conditions: Homo sapiens, 20 ng/mL of VEGF, 72 hours, WST-1, read-out: HUVEC (VEGF Dependence), 50% Growth Inhibition Concentration (IC50 value)
# Method: as §1, §2, §3, §4
# [3] = Solubility to fasted state simulated intestinal fluid; type: physicochemical; conditions: fassif, kinetic from dmso stock, fasted state simulated intestinal fluid (pH 6.5), 37° C.
# Method: Method of Measuring Solubility to Fasted State Simulated Intestinal Fluid
# To a 96-well plate, 2 μL of a dimethyl sulfoxide solution of the compound relating to the present invention or that of the compound BAY 43-9006 was poured at one time, respectively, and fasted state simulated intestinal fluid (pH 6.5) was added 200 μL by 200 μL, and the plate was shaken at 37° C. for 20 hours. The solution was filtered with a membrane filter and 101 μL of the filtrate was transferred to an UV plate, and 100 μL of a mixed solution of ethanol:water=2:1 was added thereto. On the other hand, as a standard solution, 2 μL of a dimethyl sulfoxide solution was added to a solution containing 4 μL of dimethyl sulfoxide, 400 μL of ethanol and 200 μL of water and the obtained solution was transferred 101 μL by 101 μL to the UV plate and to this UV plate, the simulated fasting bile-containing intestinal juice (pH 6.5) was added 100 μL by 100 μL. The solubility was calculated by the following equation. Solubility=(absorbance of sample solution-blank)/(absorbance of standard solution-blank)×[…]
# […] is a concentration of the standard solution.
# Composition of Fasted State Simulated Intestinal Fluid
# Fasted state simulated intestinal fluid was prepared in accordance with E. Galia et al., Pharm. Res., 698, 1998.
# To about 90 mL of water, 161 mg of taurocholic acid, 59 mg of L-α-phosphatidylcholine, 0.39 g of potassium dihydrogenphosphate and 0.77 g of potassium chloride were added and the pH of the mixture solution […] and the mixture solution was filtered with a membrane filter.
SMILES,IC50 [1] [nM],IC50 [2] [nM],IC50 (VEGF dependent HUVEC) [nM],solubility at 20 h [3] [µg/mL]
"COCCNc1ncnc2c1ncn2-c1ccc(NC(=O)Nc2ccc(Cl)c(C(F)(F)F)c2)cc1.Cl [Table 1, Compound 35, 1-(4-Chloro-3-(trifluoromethyl)phenyl)-3-{4-[6-(2-methoxy-ethylamino)purin-9-yl]phenyl}urea hydrochloride]",2400,2800,460,24
"Nc1ncnc2c1ncn2-c1ccc(N(O)C(=O)Nc2ccc(Cl)c(C(F)(F)F)c2)cc1 [Table 1, Compound 49, 1-[4-(6-Aminopurin-9-yl)phenyl]-3-(4-chloro-3-(trifluoromethyl)phenyl)-1-hydroxyurea hydrochloride]",4100,7300,190,–
"CNc1ncnc2c1ncn2-c1ccc(N(O)C(=O)Nc2ccc(Cl)c(C(F)(F)F)c2)cc1 [Table 1, Compound 53, 3-(4-Chloro-3-(trifluoromethyl)phenyl)-1-hydroxy-1-[4-(6-(methylamino)pruin-9-yl)phenyl]urea]",2800,3400,440,–
"CNc1ncnc2c1ncn2-c1ccc(NC(=O)Nc2cccc(C(F)(F)F)c2)cc1 [Table 2, Compound 19, 1-[4-(6-(Methylamino)purin-9-yl)phenyl]-3-(3-(trifluoro-methyl)phenyl)urea]",1900,1100,57,–
"CNc1ncnc2c1ncn2-c1ccc(NC(=O)Nc2ccc(N(C)C)c(C(F)(F)F)c2)cc1 [Table 2, Compound 42, 1-(4-Dimethylamino-3-(trifluoromethyl)phenyl)-3-[4-(6-(methylamino)purin-9-yl)phenyl]urea]",4000,1800,56,–
"Nc1ncnc2c1ncn2-c1ccc(NC(=O)Nc2cc(Br)cc(C(F)(F)F)c2)cc1 [Table 2, Compound 43]",3800,1800,150,–
"CNc1ncnc2c1ncn2-c1ccc(NC(=O)Nc2ccc(CN3CCN(C)CC3)c(C(F)(F)F)c2)cc1 [Table 2, Compound 46, 1-[4-(6-(Methylamino)purin-9-yl)phenyl]-3-[4-(4-methylpiperazin-1-ylmethyl)-3-(trifluoromethyl)phenyl]urea]",130,240,2.5,–
"CNc1ncnc2c1ncn2-c1ccc(NC(=O)Nc2ccc(CN3CCOCC3)c(C(F)(F)F)c2)cc1 [Table 2, Compound 47, 1-[4-(6-(Methylamino)purin-9-yl)phenyl]-3-(4-morpholin-4-ylmethyl-3-(trifluoromethyl)phenyl)urea]",700,900,29,–
"CNc1ncnc2c1ncn2-c1ccc(NC(=O)Nc2cc(N(C)C)cc(C(F)(F)F)c2)cc1 [Table 2, Compound 48, 1-(3-Dimethylamino-5-(trifluoromethyl)phenyl)-3-[4-(6-(methylamino)purin-9-yl)phenyl]urea]",3700,2400,280,–
"CNc1ncnc2c1ncn2-c1ccc(NC(=O)Nc2ccc(OCCN(C)C)c(C(F)(F)F)c2)cc1 [Table 2, Compound 52, 1-[4-(2-Dimethylaminoethoxy)-3-(trifluoromethyl)phenyl]-3-[4-(6-(methylamino)purin-9-yl)phenyl]urea]",3800,3800,270,126
"CNc1ncnc2c1ncn2-c1ccc(NC(=O)Nc2ccc(OCCN3CCOCC3)c(C(F)(F)F)c2)cc1 [Table 2, Compound 53, 1-[4-(6-(Methylamino)purin-9-yl)phenyl]-3-[4-(2-morpholin-4-yl-ethoxy)-3-(trifluoromethyl)phenyl]urea]",1700,1900,650,–
"CNc1ncnc2c1ncn2-c1ccc(NC(=O)Nc2ccc(OC3CCN(C)CC3)c(C(F)(F)F)c2)cc1 [Table 2, Compound 62, 1-[4-(6-(Methylamino)purin-9-yl)-phenyl]-3-[4-(1-methylpiperidin-4-yloxy)-3-(trifluoromethyl)phenyl]-urea]",900,700,11,35
"CNc1ncnc2c1ncn2-c1ccc(NC(=O)Nc2ccc(CCCN(C)C)c(C(F)(F)F)c2)cc1 [Table 2, Compound 74]",900,1200,83,–
"CNc1ncnc2c1ncn2-c1ccc(NC(=O)Nc2ccc(CCCN3CCOCC3)c(C(F)(F)F)c2)cc1 [Table 2, Compound 76, 1-[4-(6-(Methylamino)purin-9-yl)phenyl]-3-[4-[3-morpholin-4-yl-propyl]-3-(trifluoromethyl)phenyl]-urea]",1000,900,57,–
"CCN1CCN(Cc2ccc(NC(=O)Nc3ccc(-n4cnc5c(NC)ncnc54)cc3)cc2C(F)(F)F)CC1 [Table 3, Compound 14, 1-[4-(4-Ethyl-piperazin-1-ylmethyl)-3-(trifluoromethyl)phenyl]-3-[4-(6-(methylamino)purin-9-yl)phenyl]urea]",200,300,4,–
"CN1CCN(Cc2ccc(NC(=O)Nc3ccc(-n4cnc5cnccc54)cc3)cc2C(F)(F)F)CC1 [Table 3, Compound 18, 1-(4-Imidazo[4,5-c]pyridin-1-yl-phenyl)-3-[4-(4-methyl-piperazin-1-ylmethyl)-3-(trifluoromethyl)phenyl]urea]",3100,2700,26,–
"CNc1ncnc2c1ncn2-c1ccc(NC(=O)Nc2ccc(CN3CCN(C(C)C)CC3)c(C(F)(F)F)c2)cc1 [Table 3, Compound 28, 1-[4-(4-Isopropyl-piperazin-1-ylmethyl)-3-(trifluoromethyl)phenyl]-3-[4-(6-(methylamino)purin-9-yl)phenyl]urea]",300,200,8,–
"CNc1ncnc2c1ncn2-c1ccc(NC(=O)Nc2ccc(OCCOC)c(C(F)(F)F)c2)cc1 [Table 3, Compound 41, 1-[4-(2-Methoxy-ethoxy)-3-(trifluoromethyl)phenyl]-3-[4-(6-(methylamino)purin-9-yl)phenyl]urea]",900,800,76,–
"CNc1ncnc2c1ncn2-c1ccc(NC(=O)Nc2cc(CCCN3CCOCC3)cc(C(F)(F)F)c2)cc1 [Table 3, Compound 48, 1-[4-(6-(Methylamino)purin-9-yl)phenyl]-3-[3-(3-morpholin-4-yl-propyl)-5-(trifluoromethyl)phenyl]-urea]",3200,2500,39,–
